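Values below derive from 48-hour exposures of cells grown in 96-well plates, with endpoints linearly interpolated between the two concentrations bracketing the appropriate inhibition level. At the GI50, growth is halved.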 Active and inactive are the calls of the source. Rule as the data show it: active = GI50 up to about 1.1 µM and inactive = higher.
Experiments:
Experiment in all cases: NCI tumour cell line growth inhibition, 48 h
NCI-H23 = system: NCI-H23
BT-549 = system: BT-549
CAKI-1 = system: CAKI-1
OVCAR-3 = system: OVCAR-3
OVCAR-8 = system: OVCAR-8
K562 = system: K562
UACC-257 = system: UACC-257
UO-31 = system: UO-31
HOP-92 = system: HOP-92
HL-60 = system: HL-60
CCRF-CEM = system: CCRF-CEM
RPMI-8226 = system: RPMI-8226
RXF 393 = system: RXF 393
COLO 205 = system: COLO 205
OVCAR-5 = system: OVCAR-5
Hs-578T = system: Hs-578T
SK-MEL-2 = system: SK-MEL-2
NCI-H522 = system: NCI-H522
A549 = system: A549
SNB-75 = system: SNB-75

Row | Structure (SMILES) | GI50 (NCI-H23) | GI50 (BT-549) | GI50 (CAKI-1) | GI50 (OVCAR-3) | GI50 (OVCAR-8) | GI50 (K562) | GI50 (UACC-257) | GI50 (UO-31) | GI50 (HOP-92) | GI50 (HL-60) | GI50 (CCRF-CEM) | GI50 (RPMI-8226) | GI50 (RXF 393) | GI50 (COLO 205) | GI50 (OVCAR-5) | GI50 (Hs-578T) | GI50 (SK-MEL-2) | GI50 (NCI-H522) | GI50 (A549) | GI50 (SNB-75)
1 | O=C(O)c1ccc(NCc2nc3cc4ccccc4cc3[nH]2)cc1 | > 100 µM (inactive) | > 100 µM (inactive) | > 100 µM (inactive) | > 100 µM (inactive) | > 100 µM (inactive) | > 100 µM (inactive) | 2.63 µM (inactive) | > 100 µM (inactive) | > 100 µM (inactive) | > 20.5 µM (inactive) | > 100 µM (inactive) | > 100 µM (inactive) | > 100 µM (inactive) | > 100 µM (inactive) | > 100 µM (inactive) | > 100 µM (inactive) | 24.7 µM (inactive) | > 100 µM (inactive) | > 100 µM (inactive) | 98.6 µM (inactive)
2 | O=C(O)/C=C\C(=O)Nc1ccc2c(c1)C(=O)c1cc(F)ccc1-2 | > 100 µM (inactive) | > 100 µM (inactive) | > 100 µM (inactive) | > 100 µM (inactive) | > 100 µM (inactive) | > 100 µM (inactive) | > 100 µM (inactive) | > 100 µM (inactive) | > 100 µM (inactive) | > 100 µM (inactive) | > 100 µM (inactive) | > 100 µM (inactive) | > 100 µM (inactive) | > 100 µM (inactive) | > 100 µM (inactive) | 54.3 µM (inactive) | > 100 µM (inactive) | 56.2 µM (inactive) | > 100 µM (inactive) | > 100 µM (inactive)
3 | ClCCCSSCCCCl | 38.3 µM (inactive) | 21.5 µM (inactive) | 32.2 µM (inactive) | 36.6 µM (inactive) | 23.6 µM (inactive) | 25.8 µM (inactive) | 36.8 µM (inactive) | 30.7 µM (inactive) | 16.2 µM (inactive) | 3.86 µM (inactive) | 5.08 µM (inactive) | 31 µM (inactive) | 48.9 µM (inactive) | 32.1 µM (inactive) | > 91.6 µM (inactive) | 17.8 µM (inactive) | 40.2 µM (inactive) | 25.9 µM (inactive) | 38.6 µM (inactive) | 37.8 µM (inactive)
4 | CCCCCCCCCCCOCCC1C(C(C)OCCN2CCCC2)OC2OC(C)(C)OC21 (stereo unspecified) | 3.91 µM (inactive) | 3.13 µM (inactive) | 2.4 µM (inactive) | 4.95 µM (inactive) | 3.13 µM (inactive) | 2.25 µM (inactive) | 1.98 µM (inactive) | 2.51 µM (inactive) | 1.82 µM (inactive) | 1.11 µM (active) | 3.6 µM (inactive) | 2.07 µM (inactive) | 2.39 µM (inactive) | 1.92 µM (inactive) | 3.67 µM (inactive) | 2.68 µM (inactive) | 1.76 µM (inactive) | 0.853 µM (active) | 4.82 µM (inactive) | 2.47 µM (inactive)
5 | CSC1=N/C(=C\c2ccc(C)cc2)C(=O)N1 | 51.8 µM (inactive) | 37.8 µM (inactive) | > 100 µM (inactive) | > 100 µM (inactive) | 95.3 µM (inactive) |  | > 100 µM (inactive) | 47.8 µM (inactive) | 50.9 µM (inactive) | 54.8 µM (inactive) | 92.5 µM (inactive) | > 100 µM (inactive) | 26.4 µM (inactive) | > 100 µM (inactive) | > 100 µM (inactive) | 32.6 µM (inactive) | > 100 µM (inactive) | 34.1 µM (inactive) | > 100 µM (inactive) | 47.4 µM (inactive)
6 | CCOC(=O)CCc1c(C)nc2c(C)c3c([nH]c4ccc(Cl)cc43)c(C)c2c1O | 19.2 µM (inactive) | 10.1 µM (inactive) | 18.2 µM (inactive) |  | 23.5 µM (inactive) |  | 6 µM (inactive) | 16.1 µM (inactive) | 15.8 µM (inactive) | 4.94 µM (inactive) | 7.91 µM (inactive) |  | 2.96 µM (inactive) | 10.4 µM (inactive) | 0.843 µM (active) | 17.6 µM (inactive) | 1.45 µM (inactive) | 6.81 µM (inactive) | 4.51 µM (inactive) | 4.37 µM (inactive)
7 | COc1cc2[nH]c3c(c2cc1OC)CCN[C@@]31CC[C@@]2(CC3c4c(cc(OC)c(O)c42)CCN3C)C[C@@H]1OC (stereo partly specified) | > 79.1 µM (inactive) | 25.2 µM (inactive) | 35.6 µM (inactive) | 53.2 µM (inactive) | 30.9 µM (inactive) | 20.7 µM (inactive) | 17.8 µM (inactive) | 20.6 µM (inactive) | 22.2 µM (inactive) | 16.3 µM (inactive) | 27.2 µM (inactive) | 25.2 µM (inactive) | 21 µM (inactive) | 16.6 µM (inactive) | > 73.3 µM (inactive) | 19.7 µM (inactive) | 17.8 µM (inactive) | 29.2 µM (inactive) | 63 µM (inactive) | 18.3 µM (inactive)

From ChEMBL document CHEMBL1201862, “PubChem BioAssay data set” (2004)
